Source: article PMC6253839, “Screening of Agelasine D and Analogs for Inhibitory Activity against Pathogenic Protozoa; Identification of Hits for Visceral Leishmaniasis and Chagas Disease” (Molecules, 2009)
In brackets after ≈: the same amount, converted by molar mass. Entries after “also recorded” stand apart in the source; their conditions may differ. Like-named read-outs stand apart in the source and are kept apart here.

What was measured:
[1] = tested on: T. cruzi Tulahuen CL2 strain (nifurtimox-sensitive); assay: Antitrypanosomal activity, T. cruzi on MRC-5 cells, β-galactosidase readout; type: cell-based, Trypanosoma cruzi; details: for IC50: Trypanosoma cruzi, TULAHUEN
Experimental: To determine in vitro anti-trypanosomal activity, 4×10^3 MRC-5 cells and 4×10^4 parasites were added to each well of test plate with compound. […] The color reaction was read at 540 nm and absorbance values were expressed as a percentage of the blank controls.

[2] = tested on: P. falciparum GHA-strain (chloroquine-suceptible); assay: Antiplasmodial activity, Malstat method; type: cell-based, Plasmodium falciparum; details: for IC50: Plasmodium falciparum, read-out: P. falciparum IC50
[3] = tested on: Leishmania infantum amastigotes (MHOM/ET 67); assay: Antileishmanial activity, amastigotes in primary peritoneal mouse macrophages; type: cell-based; details: for IC50: Leishmania infantum, Macrophage, 120 h, read-out: L. infantum IC50; for hit for leishmaniasis according to TDR: criterion IC50 <0.5 μg/mL and SI >20
Experimental: Leishmania infantum amastigotes (MHOM/ET 67) were collected from an infected donor hamster and used to infect primary peritoneal mouse macrophages. To determine in vitro antileishmanial activity, 3×10^4 macrophages were seeded in each well of a 96-well plate. After 48 h outgrowth, 5×10^4 amastigotes/well were added and incubated for 2 h at 37 °C. […] Parasite burdens were determined microscopically after Giemsa staining and expressed as a percentage of the blank controls without compound.

[4] = Cytotoxicity assay, resazurin; type: cell-based; details: human
Experimental: Cell viability was determined after addition of resazurin.

[5] = tested on: Mycobacterium tuberculosis; details: cited from earlier work
[6] = tested on: Staphyllococcus aureus; parameters: method as in PMID 17442577; details: previous studies; cited from earlier work
[7] = tested on: Escherichia coli; parameters: method as in PMID 17442577; details: previous studies; cited from earlier work
[8] = GHA-strain, 72 h, TDR hit criterion <0.2 μg/mL
[9] = intracellular amastigotes, TDR hit criterion <0.5 μg/mL
[10] = MRC5, 168 h, read-out: T. cruzi IC50
[11] = MRC-5 SV2 cells (human fetal lung fibroblasts)

Compound	IC50 [2, 8] [µg/mL]	IC50 [3, 9] [µg/mL]	IC50 [1, 10] [µg/mL]	IC50 at 72 h [4, 11] [µg/mL]	further results
O=C(Cn1ccnc1[N+](=O)[O-])NCc1ccccc1 [Benznidazole, reference compound]	–	–	–	–	IC50 ([1]; MRC5, as printed in running text and table footnote, read-out: T. cruzi IC50): 0.25 µg/mL (≈ 0.961 µM)
CCN(CC)CCCC(C)Nc1ccnc2cc(Cl)ccc12 (centres unmarked) [Chloroquine, reference compound]	–	–	–	–	IC50 ([2]; 72 h): 0.04 µg/mL
CO/N=c1\[n-]cnc2c1n(C/C=C(\C)CCC=C(C)C)c[n+]2C [Compound 1a]	0.46	7.5 (≈ 23.8 µM)	< 0.079	0.86 (≈ 2.73 µM)	–
CO/N=c1\[n-]cnc2c1[n+](C/C=C(\C)CC/C=C(\C)CCC=C(C)C)cn2C [Compound 1b]	0.63	0.77 (≈ 2.01 µM)	< 0.096	0.35 (≈ 0.913 µM)	–
CC(C)=CCC/C(C)=C\CC/C(C)=C/C[n+]1cn(C)c2nc[n-]/c(=N\OCc3ccccc3)c21 [Compound 1c]	0.74	0.99 (≈ 2.15 µM)	< 0.11	0.31 (≈ 0.674 µM)	–
CO/N=c1\[n-]cnc2c1[n+](C/C=C(\C)CC/C=C(\C)CC/C=C(\C)CCC=C(C)C)cn2C [Compound 1d]	0.1	0.093 (≈ 0.206 µM)	0.11 (≈ 0.244 µM)	2 (≈ 4.43 µM)	antimalaria hit according to TDR ([2]; criterion IC50 <0.2 μg/mL with SI >20): met this requirement; hit for leishmaniasis according to TDR [3]: meets the definition of a hit; also recorded: identified as hits; IC50 ([1]; MRC5, read-out: T. cruzi IC50): < 1 µg/mL; antibacterial activity against M. tuberculosis, in words ([5]; previously shown): inhibition of Mycobacterium tuberculosis
CC(C)=CCC/C(C)=C/CC/C(C)=C/CC/C(C)=C/C[n+]1cn(C)c2nc[n-]/c(=N\OCc3ccccc3)c21 [Compound 1e]	4.2	5.4 (≈ 10.2 µM)	1.4 (≈ 2.65 µM)	3.2 (≈ 6.06 µM)	–
CC(C)=CCC/C(C)=C/CC/C(C)=C/CC/C(C)=C/C[n+]1cn(C)c2nc[n-]/c(=N\OC(C)(C)C)c21 [Compound 1f]	0.26	0.27 (≈ 0.547 µM)	< 0.12	0.26 (≈ 0.527 µM)	activity against L. infantum, in words [3]: potent inhibitors
CO/N=c1\[n-]cnc2c1[n+](C/C=C(\C)CC/C=C(\C)CC/C=C(\C)CCC=C(C)C)cn2CCC#N [Compound 1g]	5.3	12 (≈ 24.5 µM)	0.81 (≈ 1.65 µM)	0.49 (≈ 0.999 µM)	–
CC(C)=CCC/C(C)=C/CC/C(C)=C/CC/C(C)=C/C[n+]1cn(CCC#N)c2nc[n-]/c(=N\OCc3ccccc3)c21 [Compound 1h]	10	18 (≈ 31.8 µM)	3 (≈ 5.29 µM)	3.5 (≈ 6.18 µM)	–
CO/N=c1\[n-]cnc2c1[n+](C/C=C(\C)CC/C=C(\C)CC/C=C(\C)CCC=C(C)C)cn2C(c1ccccc1)c1ccccc1 [Compound 1i]	3.5	1.2 (≈ 1.99 µM)	1.3 (≈ 2.15 µM)	0.92 (≈ 1.52 µM)	–
CO/N=c1\[n-]cnc2c1[n+](C/C=C(\C)CCCC(C)CCCC(C)CCCC(C)C)cn2C (centres unmarked) [Compound 1j]	0.3	0.23 (≈ 0.503 µM)	< 0.11	0.21 (≈ 0.459 µM)	activity against L. infantum, in words [3]: potent inhibitors
CC1=C(CC/C(C)=C/CC/C(C)=C/C[n+]2cn(C)c3nc[n-]/c(=N\OCc4ccccc4)c32)C(C)(C)CCC1 [Compound 1l]	1.3	12 (≈ 22.7 µM)	0.14 (≈ 0.265 µM)	0.53 (≈ 1 µM)	–
CC1=C(CC/C(C)=C/CC/C(C)=C/C[n+]2cn(C)c3nc[n-]/c(=N\OC(C)(C)C)c32)C(C)(C)CCC1 [Compound 1m]	0.69	0.99 (≈ 2.01 µM)	< 0.12	0.48 (≈ 0.972 µM)	–
C=C1CC[C@H]2C(C)(C)CCC[C@]2(C)[C@H]1CC/C(C)=C/Cn1c[n+](C)c2nc[n-]/c(=N\OC)c21 [Compound 1n]	0.29	0.63 (≈ 1.39 µM)	0.49 (≈ 1.08 µM)	4.5 (≈ 9.96 µM)	–
C=C1CC[C@H]2C(C)(C)CCC[C@]2(C)[C@H]1CC/C(C)=C/Cn1c[n+](C)c2nc[n-]/c(=N\OC(C)(C)C)c21 [Compound 1o]	0.94	4 (≈ 8.1 µM)	< 0.12	0.45 (≈ 0.911 µM)	–
CC(C)=CCC/C(C)=C\CC/C(C)=C/C[n+]1cn(C)c2ncnc(N)c21 [Compound 2a]	2.9	> 26	0.43	> 26	hit for Chagas disease according to TDR [1]: classified as hits; also recorded: identified as hits; antibacterial activity against S. aureus, in words [6]: virtually inactive; antibacterial activity against E. coli, in words [7]: virtually inactive; antibacterial activity against M. tuberculosis, in words ([5]; previous studies): virtually inactive
C/C(=C\C[n+]1cn(C)c2ncnc(N)c21)CCCC(C)CCCC(C)CCCC(C)C (centres unmarked) [Compound 2b]	–	–	< 0.12	–	IC50 ([2]; 72 h): 0.96 µg/mL; IC50 [3]: 2.9 µg/mL; IC50 at 72 h ([4]; read-out: MRC-5 IC50): 0.75 µg/mL
C=C1CC[C@@H]2C(C)(C)CCC[C@@]2(C)[C@@H]1CC/C(C)=C/Cn1c[n+](C)c2ncnc(N)c21 [Compound 2c, agelasine D]	0.29	1.5	4.5	–	IC50 ([2]; same value as 0.29 μg/mL, in μM): 0.63 µM; IC50 at 72 h ([4]; read-out: MRC-5 IC50): 6.7 µg/mL
CC(C)=CCC/C(C)=C/CC/C(C)=C/CC/C(C)=C/Cn1cnc2c(N)ncnc21 [Compound 3f, 9-Geranylgeranyladenine]	> 29	> 29	0.77 (≈ 1.89 µM)	2.7 (≈ 6.62 µM)	IC50 ([1]; MRC5, read-out: T. cruzi IC50): < 1 µg/mL
CC(C)=CCC/C(C)=C/CC/C(C)=C/CC/C(C)=C/Cn1cnc2ncnc(N)c21 [Compound 4a]	9.4	> 26	2.3 (≈ 5.64 µM)	2.6 (≈ 6.38 µM)	–
CONc1ncnc2ncn(C/C=C(\C)CC/C=C(\C)CC/C=C(\C)CCC=C(C)C)c12 [Compound 4b]	> 28	> 28	0.28 (≈ 0.64 µM)	2.1 (≈ 4.8 µM)	–
CC(C)=CCC/C(C)=C/CC/C(C)=C/CC/C(C)=C/Cn1cnc2ncnc(NOCc3ccccc3)c21 [Compound 4c]	25	> 33	1.5 (≈ 2.92 µM)	1.5 (≈ 2.92 µM)	–
CC(C)=CCC/C(C)=C/CC/C(C)=C/CC/C(C)=C/Cn1cc[n+](C)c1 [Compound 5]	0.97	< 0.11	< 0.11	7.6	hit for leishmaniasis according to TDR [3]: classifies as a hit; also recorded: identified as hits; hit for Chagas disease according to TDR [1]: classified as hits; also recorded: identified as hits; antibacterial activity against S. aureus, in words [6]: reasonably active; antibacterial activity against E. coli, in words [7]: not against; antibacterial activity against M. tuberculosis, in words ([5]; previous studies): not against
CC(C)=CCC/C(C)=C/CC/C(C)=C/CC/C(C)=C/Cn1c[n+](C)c2ccccc21 [Compound 6]	1	2.5	< 0.12	2	–
CC(C)=CCC/C(C)=C/CC/C(C)=C/CC/C(C)=C/C[n+]1cnc2c(ncn2C)c1N [Compound 7]	10	> 32	11	16	–
CC(C)=CCC/C(C)=C/CC/C(C)=C/CC/C(C)=C/Cn1cnc2c1c(=N)ncn2C [Compound 8]	3.37	13 (≈ 30.8 µM)	0.19 (≈ 0.451 µM)	2.3 (≈ 5.45 µM)	–
CC1=C(CC/C(C)=C/CC/C(C)=C/Cn2cnc3c2C(=N)N(C)CN3C)C(C)(C)CCC1 [Compound 9]	> 28	> 28	3.2 (≈ 7.31 µM)	> 28	IC50 ([1]; MRC5, read-out: T. cruzi IC50): < 1 µg/mL
CCCCCCCCCCCCCCCCOP(=O)([O-])OCC[N+](C)(C)C [Miltefosine, reference compound]	–	0.24 (≈ 0.589 µM)	–	–	–
